In patent US20040158066A1, “Novel pyridylmethylaminopyrimidines” (priority 2001, published 2004):
In brackets after ≈: the same amount, converted by molar mass.

Key:
Helicobacter pylori [1] = experiment: Agar dilution test (inhibition of growth in vitro on agar plates); format: cell-based; details: 96 h, Columbia agar (Oxoid), growth period of 4 days, read-out: approx. MIC50
Text: Agar Dilution Test (Determination of the Inhibition of Growth In Vitro on Agar Plates)
The compounds of the formula I were investigated for their activity against Helicobacter pylori in accordance with the methodology described by Tomoyuki Iwahi et al. (Antimicrobial Agents and Chemotherapy, 1991, 490-496) using Columbia agar (Oxoid) over a growth period of 4 days.

Helicobacter pylori [2] = experiment: Inhibition of growth in vitro in liquid culture (NanoOrange fluorescence); format: cell-based; details: liquid culture BHI/6% FCS medium, 24 hours incubation at 37° C., microaerobic, 1% DMSO
Text: Determination of the Inhibition of Growth In Vitro in Liquid Culture
The principle of the technique is based on the detection of the multiplication of, for example, Helicobacter pylori in liquid culture using BHI/6% FCS medium. The method ensures linear fluorescence increase in the range from 3×10^6 to 3×10^8 cells.
The bacterial culture was distributed with an initial density of 1-3×10^6 microbes/ml in a 96-well MTP in […]. The test substances in a concentration of […] in a final concentration of 1% DMSO were added to these minicultures. These MTPs were then incubated under microaerobic conditions (Anaerokult, Merck) and with shaking at 37° C. for 24 hours. Following the 24-hour incubation, the minicultures were transferred to filter MTPs and washed twice with isotonic buffer (filtered off with suction, taken up, shaken) and finally were taken up in double-distilled water and shaken, and an aliquot was transferred to a new MTP. This aliquot was admixed with the fluorescent dye NanoOrange (Molecular Probes) in accordance with the manufacturer's instructions. Development of protein detection took place at 90° C. in a pressure-secured sandwich technique. After the plates had cooled, the fluorescence was measured on a plate reader at 549 nm. […] This calculation was made using origin, sigmoidal curve adaptation by means of the ‘logistic’ algorithm.

Helicobacter pylori [3] = experiment: Helicobacter pylori eradication rate in vivo (urease test on antrum tissue); details: infected gerbils; 50 mg/kg by tube, 3 × daily for 4 days; urease test four weeks after last treatment
Experimental: Determination of the Helicobacter pylori Eradication Rate In Vivo
Gerbils were infected on days 1, 3, and 5 with a suspension containing 10^8-10^9 Helicobacter pylori bacteria per animal. […] Beginning on day 36, the gerbils were treated on four successive days—three times daily at 07.30, 11.30, and 15.00 hours—with a placebo or the test substance, using a tube. Four weeks after the last treatment, the gerbils were sacrificed using CO2. A tissue sample of the antrum was introduced into the urease test solution and incubated at 37° C. for 24 hours. Changes in color of the solution from yellow to violet, which resulted from the increase in pH caused by the formation of NH3 from the urease, were detected. The eradication rate was calculated as the percentage of animals whose stomach tissue sample gave a negative urease test.
Conditions Under which the Animals were Kept:
Groups of 5-10 gerbils per cage (type IV Macrolon cage) were kept at an ambient temperature of 23±2° C. and a relative humidity of 50±10%. They were fed ad libitum with NAFAG feed No. 9439 for rats and mice (NAFAG AG, CH-2900, Gossau, Switzerland) and had free access to mains water during the experiment.
The substances administered are referenced in table C below using numbers which correspond to the numbers of the compounds in the examples.

SMILES | melting point | MIC50 (Helicobacter pylori [1]) | IC50 (Helicobacter pylori [2]) | Eradication rate (Helicobacter pylori [3])
Cc1nc(C)c(Cl)c(NCc2ccc(Oc3ccc4ncc([N+](=O)[O-])n4n3)cn2)n1.Cl.Cl | 280 to 281 °C | – | – | –
Cc1nc(C)c(Cl)c(NCc2ccc(Oc3ccc4ncc([N+](=O)[O-])n4n3)cn2)n1.O=S(=O)(O)O | 233 to 234 °C | – | – | –
COc1c(Oc2ccc3ncc([N+](=O)[O-])n3n2)cnc(CNc2nc(C)nc(C)c2Cl)c1C [Compound 1, (5-Chloro-2,6-dimethylpyrimidin-4-yl)[4-methoxy-3-methyl-5-(3-nitroimidazo[1,2-b]pyridazin-6-yloxy)pyridin-2-ylmethyl]amine] | 229.5 to 231.5 °C | ~0.1 µg/mL (≈ 0.212 µM) | 12 nM | –
COc1c(OCCn2c([N+](=O)[O-])cnc2C)cnc(CNc2nc(C)nc(C)c2Cl)c1C [Compound 2, (5-Chloro-2,6-dimethylpyrimidin-4-yl){4-methoxy-3-methyl-5-[2-(2-methyl-5-nitroimidazol-1-yl)ethoxy]pyridin-2-ylmethyl}amine] | 182.5 to 184 °C | ~0.1 µg/mL (≈ 0.216 µM) | 64 nM | –
Cc1nc(C)c(Cl)c(NCc2ccc(Oc3ccc4ncc([N+](=O)[O-])n4n3)cn2)n1 [Compound 3, (5-Chloro-2,6dimethylpyrimidin-4-yl){5-(3-nitroimidazo[1,2-b]pyridazin-6-yloxy)pyridin-2-ylmethyl}amine] | 194 to 198 °C | ~0.1 µg/mL (≈ 0.234 µM) | 35 nM | 100%
Cc1nc(C)c(Cl)c(NCc2ccc(OCCn3c([N+](=O)[O-])cnc3C)cn2)n1 [Compound 4, (5-Chloro-2,6-dimethylpyrimidin-4-yl){5-[2-(2-methyl-5-nitroimidazol-1-yl)ethoxy]pyridine-2-ylmethyl}amine] | 181.5 to 183.5 °C | ~0.1 µg/mL (≈ 0.239 µM) | 40 nM | –
Cc1nc(C)c(Cl)c(NCc2ccc(Oc3ccc4ncc([N+](=O)[O-])n4n3)c(Cl)n2)n1 [Compound 7, (5-Chloro-2,6-dimethylpyrimidin-4-yl)-[6-chloro-5-(3-nitroimidazo[1,2-b]pyridazin-6-yloxy)pyridin-2-ylmethyl]amine] | 184 to 186 °C | – | – | –
Cc1nc(C)c(Cl)c(NCc2ccc(OCCn3c([N+](=O)[O-])cnc3C)c(Cl)n2)n1 [Compound 8, (5-Chloro-2,6-dimethylpyrimidin-4-yl)-{6-chloro-5-[2-(2-methyl-5-nitroimidazol-1-yl)ethoxy]pyridin-2-ylmethyl}amine] | 206 to 208 °C | – | – | –
Cc1nc(C)c(Cl)c(CNCc2ccc(Oc3ccc4ncc([N+](=O)[O-])n4n3)cn2)n1 [Compound 9, (5-Chloro-2,6-dimethylpyrimidin-4-yl)methyl-[5-(3-nitroimidazo[1,2-b]pyridazin-6-yloxy)pyridin-2-ylmethyl]amine] | 183 to 184 °C | – | – | –
